The results in this text go back to ChEMBL document CHEMBL1933021, “Novel and selective spiroindoline-based inhibitors of Sky kinase” (Bioorg Med Chem Lett, 2012).

For assay [1], the target named is Serine/threonine-protein kinase pim-2 (Homo sapiens, UniProt Q9P1W9). Briefly: Inhibition of Pim-2.
Assay [2] addresses T1, Inhibitor of nuclear factor kappa-B kinase subunit beta (Homo sapiens, UniProt O14920).
T1 sequence (O14920 whole entry): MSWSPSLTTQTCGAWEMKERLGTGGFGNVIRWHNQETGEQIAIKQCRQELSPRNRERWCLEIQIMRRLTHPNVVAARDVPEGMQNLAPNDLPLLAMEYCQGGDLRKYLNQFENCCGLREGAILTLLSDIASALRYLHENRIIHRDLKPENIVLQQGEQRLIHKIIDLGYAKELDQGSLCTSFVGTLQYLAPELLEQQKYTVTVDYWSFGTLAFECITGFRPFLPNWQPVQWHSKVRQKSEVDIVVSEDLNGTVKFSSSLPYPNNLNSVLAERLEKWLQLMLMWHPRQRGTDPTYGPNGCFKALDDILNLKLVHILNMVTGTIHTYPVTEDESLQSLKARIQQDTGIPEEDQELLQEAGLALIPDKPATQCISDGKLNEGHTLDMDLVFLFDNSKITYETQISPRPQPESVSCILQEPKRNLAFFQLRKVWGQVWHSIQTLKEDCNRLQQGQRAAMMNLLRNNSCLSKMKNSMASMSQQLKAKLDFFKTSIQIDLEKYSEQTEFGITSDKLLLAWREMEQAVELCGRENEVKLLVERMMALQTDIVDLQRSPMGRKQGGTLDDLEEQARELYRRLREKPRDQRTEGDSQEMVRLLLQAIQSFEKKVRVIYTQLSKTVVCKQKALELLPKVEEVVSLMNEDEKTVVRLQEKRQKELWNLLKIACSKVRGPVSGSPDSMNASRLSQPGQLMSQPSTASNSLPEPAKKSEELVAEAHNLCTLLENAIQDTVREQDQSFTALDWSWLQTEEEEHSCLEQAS
As to the kind of experiment: Inhibition of IKK-beta.

The target in assay [3] is T2, Tyrosine-protein kinase Mer (Homo sapiens, UniProt Q12866).
T2 sequence (Q12866 whole entry): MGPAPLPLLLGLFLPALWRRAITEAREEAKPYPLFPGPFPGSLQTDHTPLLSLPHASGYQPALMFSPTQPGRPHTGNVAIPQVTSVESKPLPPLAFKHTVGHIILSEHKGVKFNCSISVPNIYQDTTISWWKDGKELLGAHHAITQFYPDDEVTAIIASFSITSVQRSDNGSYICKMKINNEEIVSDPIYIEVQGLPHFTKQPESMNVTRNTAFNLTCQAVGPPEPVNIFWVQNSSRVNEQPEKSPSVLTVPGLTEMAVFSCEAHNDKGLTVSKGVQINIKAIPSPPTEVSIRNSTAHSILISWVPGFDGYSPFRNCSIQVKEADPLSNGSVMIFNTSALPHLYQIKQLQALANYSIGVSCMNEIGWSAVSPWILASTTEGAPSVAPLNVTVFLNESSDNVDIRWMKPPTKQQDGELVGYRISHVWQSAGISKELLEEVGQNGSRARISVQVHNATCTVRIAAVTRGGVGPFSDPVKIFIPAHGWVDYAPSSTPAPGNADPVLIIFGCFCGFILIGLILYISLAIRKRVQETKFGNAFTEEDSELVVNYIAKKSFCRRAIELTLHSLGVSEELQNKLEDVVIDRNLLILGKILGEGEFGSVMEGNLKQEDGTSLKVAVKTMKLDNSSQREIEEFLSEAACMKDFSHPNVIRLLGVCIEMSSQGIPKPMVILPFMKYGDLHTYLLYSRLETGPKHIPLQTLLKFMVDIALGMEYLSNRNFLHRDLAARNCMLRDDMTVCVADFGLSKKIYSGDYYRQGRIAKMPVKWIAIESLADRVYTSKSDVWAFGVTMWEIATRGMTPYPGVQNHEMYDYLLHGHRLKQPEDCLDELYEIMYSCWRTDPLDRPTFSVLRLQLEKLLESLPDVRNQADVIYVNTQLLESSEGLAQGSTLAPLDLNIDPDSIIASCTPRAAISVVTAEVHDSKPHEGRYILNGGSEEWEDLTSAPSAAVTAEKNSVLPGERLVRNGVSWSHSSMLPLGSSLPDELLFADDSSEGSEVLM
Briefly: Inhibition of Mer.

In assay [4] the target is Casein kinase I isoform delta (Homo sapiens, UniProt P48730). As to the kind of experiment: Inhibition of CK1delta.
Chain of Casein kinase I isoform delta (P48730 whole entry, canonical isoform): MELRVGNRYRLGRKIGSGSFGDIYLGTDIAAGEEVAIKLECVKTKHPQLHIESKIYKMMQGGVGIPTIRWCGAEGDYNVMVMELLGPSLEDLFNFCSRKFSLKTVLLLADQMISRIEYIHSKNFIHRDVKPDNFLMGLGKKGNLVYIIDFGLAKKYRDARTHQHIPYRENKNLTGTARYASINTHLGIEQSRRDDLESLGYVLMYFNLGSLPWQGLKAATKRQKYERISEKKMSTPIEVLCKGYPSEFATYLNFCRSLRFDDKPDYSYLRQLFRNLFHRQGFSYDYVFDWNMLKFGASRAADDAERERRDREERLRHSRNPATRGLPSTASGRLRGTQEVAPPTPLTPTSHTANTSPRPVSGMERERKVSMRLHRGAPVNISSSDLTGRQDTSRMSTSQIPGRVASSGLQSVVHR
In assay [5] the target is T3, Protein kinase C zeta type (Homo sapiens, UniProt Q05513).
T3 sequence (Q05513 whole entry): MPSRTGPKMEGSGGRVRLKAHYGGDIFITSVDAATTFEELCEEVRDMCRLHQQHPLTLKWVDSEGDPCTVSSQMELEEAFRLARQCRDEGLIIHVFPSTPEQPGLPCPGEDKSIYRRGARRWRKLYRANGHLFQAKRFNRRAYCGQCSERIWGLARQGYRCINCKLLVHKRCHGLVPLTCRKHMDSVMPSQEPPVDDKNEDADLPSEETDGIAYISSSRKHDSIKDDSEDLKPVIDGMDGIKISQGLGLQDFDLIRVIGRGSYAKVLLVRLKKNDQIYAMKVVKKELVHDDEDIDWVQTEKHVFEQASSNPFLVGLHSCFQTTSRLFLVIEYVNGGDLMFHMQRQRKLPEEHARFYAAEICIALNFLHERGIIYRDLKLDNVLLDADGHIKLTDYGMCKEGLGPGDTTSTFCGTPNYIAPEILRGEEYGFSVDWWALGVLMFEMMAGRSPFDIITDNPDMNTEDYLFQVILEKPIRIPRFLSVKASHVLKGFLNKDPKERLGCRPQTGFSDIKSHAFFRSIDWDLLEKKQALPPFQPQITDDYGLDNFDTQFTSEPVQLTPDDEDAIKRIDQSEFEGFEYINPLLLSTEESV
Briefly: Inhibition of PKCzeta.

SMILES strings stand for the structures. Bounds are passed on as bounds.

Chain of Serine/threonine-protein kinase pim-2 (Q9P1W9 whole entry): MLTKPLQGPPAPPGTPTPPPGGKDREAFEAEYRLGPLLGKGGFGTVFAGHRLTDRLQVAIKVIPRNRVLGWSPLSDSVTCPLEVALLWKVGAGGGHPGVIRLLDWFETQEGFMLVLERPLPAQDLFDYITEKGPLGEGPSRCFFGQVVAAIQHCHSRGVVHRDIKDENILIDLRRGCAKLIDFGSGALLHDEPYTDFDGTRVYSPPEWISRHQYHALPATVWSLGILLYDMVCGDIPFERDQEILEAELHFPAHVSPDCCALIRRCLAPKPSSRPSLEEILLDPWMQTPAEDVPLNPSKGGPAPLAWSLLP

For orientation: IC50 means the midpoint of a concentration-inhibition curve. A high value points to weaker potency in that assay. In the case of `O=C(c1cc2ccc(F)cc2[nH]1)N1C[C@]2(CCN(C3CCNC3)C2)c2ccccc21` (some centres undefined), the IC50 in assay [1] was greater than 30 µM; in assay [2], greater than 30 µM; in assay [3], 2.44 µM; in assay [4] it was 11 µM; in assay [5], greater than 30 µM.
In the case of `C[C@@H]1CCC(N2CC[C@]3(CN(C(=O)c4cc5ccc(F)cc5[nH]4)c4ccccc43)C2)CN1` (some centres undefined), the IC50 in assay [1] was greater than 30 µM; in assay [2] it was greater than 30 µM; in assay [3], 0.97 µM; in assay [4], 1.73 µM; in assay [5], greater than 30 µM.
With `O=C(c1cc2cc(F)ccc2[nH]1)N1C[C@]2(CCN(C3CCCNC3)C2)c2ccccc21` (some centres undefined), the IC50 in assay [1] was greater than 30 µM; in assay [2] it was greater than 30 µM; in assay [3], 6.93 µM; in assay [5], greater than 30 µM.
As to `C[C@@H]1CCC(N2CC[C@]3(CN(C(=O)c4cc5ccccc5[nH]4)c4ccccc43)C2)CN1` (some centres undefined), the IC50 in assay [1] was greater than 30 µM; in assay [2], greater than 30 µM; in assay [3], 2.34 µM; in assay [4] it was 6.61 µM; in assay [5] it was greater than 30 µM.
